# Experimental data from PMC8464955, “Prediction of Drug–Drug Interaction Potential of Tegoprazan Using Physiologically Based Pharmacokinetic Modeling and Simulation” (Pharmaceutics, 2021).
# Read-outs that look alike come from different tables or passages of the source.
# Tests used:
# [1] = Physicochemical properties (log P, pKa), experimental data; details: for pKa: ampholyte
# Description: A PBPK model of tegoprazan was built and verified by both the bottom-up approach using in vitro data for maintaining a mechanistic PBPK structure and the top-down approach using clinical PK results for maintaining a descriptive structure (Figure 1). The initial PBPK model of tegoprazan was constructed using physicochemical properties (e.g., molecular weight, log P, pKa), in vitro data (e.g., permeability, intrinsic clearance), and in vivo data (e.g., renal clearance) provided by HK inno.N Corp. (Seoul, Korea). The commercially available software SimCYP simulator v19 (SimCYP Limited, Certara, Sheffield, UK) was used to build the PBPK model and to generate the PK simulations. The PBPK-model-predicted PK profiles and parameters of tegoprazan were compared with the observed PK profiles and parameters from previously conducted clinical studies (Supplementary Table S1). The specific model configuration related to absorption, distribution, and elimination is described below.
# [2] = system: CYP3A4; assay: CYP3A4 intrinsic clearance by parameter estimation against clinical data; parameters: species or system human; details: estimated from clinical data, single dose 50 mg, instead of in vitro data
# Procedure: The elimination of the PBPK model consisted of enzyme kinetic and renal clearance (Table 1). Intrinsic clearances (CLint) of tegoprazan by various CYPs were determined by an in vitro study that measured the fraction of CLint inhibited by adding the inhibitors of CYP1A2, CYP2C9, CYP2C19, CYP2D6, and CYP3A to human liver microsomes (in-house data). Based on the in vitro data, an in vitro to in vivo extrapolation (IVIVE) approach was used to estimate the in vivo CLint by each CYP enzyme. Renal clearance as an additional clearance was used from the result of a single-oral-dose study of tegoprazan 100 mg.
# If the predicted PK profiles and parameters were not close enough to the observed values, the PBPK model was refined by the parameter estimation approach, in which a parameter was optimized with respect to the clinical data. Parameter estimation was conducted using the genetic algorithm method and weighted-least squares as the objective function. Four parameters were simultaneously estimated in the final step of model refinement using clinical data of single-dose PK study of tegoprazan 50 mg (Table 1). The values of Q and VSAC were estimated to reflect the biphasic distribution of tegoprazan, and the value of Kp scalar was estimated because it affected the overall PK profile, especially distribution and clearance. […]
# [3] = Phase 1 clinical PK studies of tegoprazan alone in healthy male adults (observed); assay type: in vivo; details: human, urine and plasma, single oral dose 100 mg, read-out: CLR (renal clearance) (converted)
# Procedure: (§1) The established PBPK model was verified by applying the predicted values to the clinical PK data from various phase 1 studies conducted with healthy male adults (Supplementary Table S2). Brief information about the clinical studies follows: study 1 (single-dose PK study), a single dose of tegoprazan 25 mg and 50 mg was orally administered; study 2 (food effect study), a single dose of tegoprazan 50 mg was orally administered in both fasted and fed states; study 3 (bioequivalence study of two formulations), a single dose of two different formulations with tegoprazan 100 mg was orally administered; study 4 (multiple-dose PK study), multiple doses of tegoprazan 50 mg and 100 mg were orally administered once daily for 7 days; study 5 (DDI study with clarithromycin), multiple doses of tegoprazan 200 mg were orally administered once daily with or without multiple doses of clarithromycin 500 mg twice daily for 5 days; and study 6 (DDI study with clarithromycin and amoxicillin), multiple doses of tegoprazan 100 mg were orally administered twice daily with or without multiple doses of clarithromycin/amoxicillin 500/1000 mg twice daily for 5 days or 7 days.
# [4] = Clinical DDI studies of tegoprazan with clarithromycin or clarithromycin/amoxicillin (observed); assay type: in vivo, human
# Procedure: as §1
# After refining and verifying the PBPK model of tegoprazan as a single agent, the DDI between tegoprazan and clarithromycin was finally verified using data from DDI clinical studies. To verify the predictability of the DDI estimated by the PBPK model of tegoprazan, the model-predicted PK profiles, parameters, and fold-increase of parameters were compared with the observed PK data measured in clinical studies (i.e., studies 5 and 6). In the case of study 6, the observed data were generated under the condition of triple administration of tegoprazan, clarithromycin, and amoxicillin. […] When simulating the DDI between tegoprazan and clarithromycin, the PBPK model of clarithromycin available in the SimCYP compound file was used.
# [5] = cited from earlier work; for AUCτ Obs. / Cmax Obs.: mean; for Tmax Obs.: median
# [6] = cited from earlier work
# [7] = tegoprazan 100 mg BID with vs without clarithromycin 500 mg BID + amoxicillin 1000 mg BID
# [8] = tegoprazan 200 mg QD with vs without clarithromycin 500 mg BID
# [9] = tegoprazan 100 mg BID + clarithromycin 500 mg BID + amoxicillin 1000 mg BID, 7 days
# [10] = tegoprazan 100 mg BID alone for 4 days, once on day 5
# [11] = tegoprazan 200 mg QD + clarithromycin 500 mg BID for 5 days, ref NCT02052336
# [12] = tegoprazan 200 mg QD alone for 5 days, ref NCT02052336
smiles,measurement,setting,value
Cc1nc2cc(C(=O)N(C)C)cc(O[C@H]3CCOc4cc(F)cc(F)c43)c2[nH]1 [tegoprazan],pKa,[1]; read-out: pKa 1,5.2
same,pKa,[1]; read-out: pKa 2,12
same,logP,"[1]; octanol/water, read-out: Log P (octanol:water partition coefficient)",3
same,CYP3A4 CLint,[2],30.34 μL/min/mg of protein
same,CL renal,[3],21.8 mL/min
same,Fold Increase Obs. AUCR,[4]; [7],2.69
same,Fold Increase Obs. CmaxR,[4]; [7],2.24
same,Fold Increase Obs. AUCR,[4]; [8],2.57
same,Fold Increase Obs. CmaxR,[4]; [8],1.66
same,DDI between tegoprazan and amoxicillin,[5],negligible
same,"apparent clearance, DDI study result",[5]; co-administration of clarithromycin,6.6 L/h
same,AUCτ Obs.,[5]; [9],"16,045.0 μg∙h/L"
same,Cmax Obs.,[5]; [9],2285.6 ng/mL
same,Tmax Obs.,[5]; [9],2.50 h
same,AUCτ Obs.,[5]; [10],5955.9 µg·h/L
same,Cmax Obs.,[5]; [10],1018.4 ng/mL
same,Tmax Obs.,[5]; [10],1.30 h
same,AUCτ Obs.,[5]; [11],"27,796.4 μg∙h/L"
same,Cmax Obs.,[5]; [11],3096.0 ng/mL
same,Tmax Obs.,[5]; [11],1.50 h
same,AUCτ Obs.,[5]; [12],"10,817.6 μg∙h/L"
same,Cmax Obs.,[5]; [12],1868.6 ng/mL
same,Tmax Obs.,[5]; [12],1.00 h
same,"apparent clearance, DDI study result",[5]; tegoprazan alone,17.7 L/h
same,apparent clearance,[6],approximately 17.6 L/h
same,mean half-life,[6],3.7 to 6.2 h
same,volume of distribution,[6],~107.9 L
same,safety and tolerability,"[6]; healthy adults, up to 400 mg single dose and 200 mg multiple doses",safe and tolerable
same,increase of systemic exposure with dose,"[6]; phase 1 clinical study, healthy adults",dose proportional
same,Cmax when administered with food,[6]; previous studies,decreased
same,time to reach Cmax when administered with food,[6]; previous studies,delayed
